Legend:
C57BL/6 mice = assay: S1P1-positive T-cell population in vivo, FACS; design: species or system mouse; conditions: for increase of S1P1-positive T cells in the blood, of normal expression levels / increase of S1P1 population, spleen T cells / decrease of S1P1 population in the lymph nodes: 2-day treatment
Text: The S1P gradient is a crucial factor for lymphocytes to egress from lymphoid tissues and re-enter the circulation. […] To identify whether the effect of AD2900 on T-cell localization may be mediated by an influence on S1P1 and CCR7 expression, we tested the percentage of S1P1- and CCR7-positive T-cell populations in the blood, spleen, and lymph node in each mouse after a 2-day treatment with AD2900. The percentage of cells expressing S1P1 or CCR7 on their cell surface was detected by FACS analysis and was calculated as % of expressing population in non-treated animals. […] AD2900 elevates the S1P1-expressing population in the blood and spleen, whereas it reduces this population in the lymph nodes. […] In the lymph nodes, the […] population was not affected by AD2900 treatment (Figure 7F).
Figure 7 The influence of AD2900 on S1P1- and CCR7-positive T-cell populations in blood, spleen, and peripheral lymph nodes C57BL/6 mice were orally administered with 1.8, 2.7, and 3.6 mg/l AD2900 or 1.8 mg/l FTY720 for 2 days, as shown in Figure 4. Leukocytes from blood, spleen, and pLNs were collected and stained with CD3e and S1P1 or CCR7 fluorescent antibodies and then analyzed by FACS analysis. The percentages of S1P1+ CD3e+ T cells from blood (A), spleen (B), and pLNs (C) are shown. The percentages of CCR7+ CD3e+ T cells from blood (D), spleen (E), and pLNs (F) are shown. All the significances are compared to untreated healthy mice. Results summarize at least three independent experiments. Results of Student’s t-test:*(P < 0.05, two-tailed test), ** (P < 0.01, two-tailed test), *** (P < 0.001, two-tailed test), **** (P < 0.0001, two-tailed test).
C57BL/6 female mice aged 7–8 weeks were obtained from Harlan Laboratories (Jerusalem, Israel). The animal study was conducted under appropriate conditions and was approved by the Institutional Animal Care and Use Committee of the Hebrew University of Jerusalem in accordance with the national laws and regulations for the protection of animals. AD2900 was dissolved in 10% BSA (MP Biomedicals, CA, USA) in DDW at 1 mg/ml and then further diluted in 200 ml water to get final concentrations at 1.8, 2.7, or 3.6 mg/l. AD2900 and FTY720 were supplied ad libitum to the mice for 2 days or 7 days. At the end of the experiment, blood was collected, and the mice were sacrificed and tissues (lymph nodes and spleen) were harvested.

murine splenocytes = assay: Mouse allogeneic MLR with murine splenocytes; assay type: cell-based; conditions: 1-day pretreatment, 3-day mice MLR; mean of up to, highest concentration
Protocol: Supplementary Figure 4: AD2900 inhibits mice splenocytes proliferation in allogeneic activation in vitro. In vivo- the […]
(A) The levels of proliferative response of mouse splenocytes after one day pretreatment with different concentrations of AD2900 were tested by mouse allogeneic mixed lymphocyte reaction (MLR) assay followed by a [3H] thymidine incorporation analysis. [3H] thymidine was incorporated for at least 16 hours at the 3rd day of the experiment. Significance is compared to untreated mice splenocytes. (B) C57BL/6 mice were orally administered AD2900 or FTY720. Leucocytes from blood, spleen and pLNs were collected and stained with TCR-β, CD62L and CD44 florescent antibodies and then analyzed by FACS analysis. The percent of CD62L+CD44+ (Tcm) like cells out of the total T cell population (TCR-β+) in blood, spleen and pLNs are shown. All the significances are compared to untreated healthy mice. Graphs summarize results of at least three independent experiments. Results of Student’s t test :*( P < 0.05, two-tailed test), ** (P < 0.01, two-tailed test), *** (P < 0.001, two-tailed test), **** (P < 0.0001, two-tailed test).
(also on this page, place not known: www.impactjournals.com/oncotarget/ Oncotarget, Materials 2017 Supplementary) […]

S1P3 = target: T1, S1P3 (Homo sapiens, UniProt Q99500); assay: S1P3 agonist test, S1P3 NFAT-bla CHO cells; assay type: cell-based; conditions: S1P3 NFAT-BLA CHO cell line
T1 construct: expressed in transfected cells; host or cells: S1P3 NFAT-bla CHO cells
T1 sequence (Q99500 whole entry): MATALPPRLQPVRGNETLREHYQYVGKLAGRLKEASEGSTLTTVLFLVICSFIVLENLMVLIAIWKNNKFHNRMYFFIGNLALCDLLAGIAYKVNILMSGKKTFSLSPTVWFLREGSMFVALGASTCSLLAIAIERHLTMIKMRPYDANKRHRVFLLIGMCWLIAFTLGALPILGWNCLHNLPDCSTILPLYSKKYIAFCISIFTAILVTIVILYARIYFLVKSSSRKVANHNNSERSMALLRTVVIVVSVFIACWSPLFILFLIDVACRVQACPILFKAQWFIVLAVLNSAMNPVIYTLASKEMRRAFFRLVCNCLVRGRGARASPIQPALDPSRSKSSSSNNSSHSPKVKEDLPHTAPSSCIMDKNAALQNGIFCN
Protocol: (§1) Since AD2900 is a sphingolipid analogue with properties that resemble those of S1P, we intended to examine its ability to interact with the S1P receptors. To delineate whether AD2900 can function as an agonistic or antagonistic compound to any of the S1P receptors, we used a high-throughput screening cell-based assay, employing cell lines stably transfected with human S1P receptors 1, 2, 3, 4, or 5 [37]. In this experiment, a compound with an IC50 or EC50 value ≤10 μM for a certain S1P receptor is considered active as an antagonist or an agonist, respectively. The results illustrate that AD2900 acts as an antagonist to all S1P receptors (Table 1, Supplementary Figure 3). […] No agonist activation was evident.
(§2) The S1P1 agonist test and S1P2, S1P3, S1P4, and S1P5 agonist and antagonist tests were conducted as previously described using S1P1 CRE-bla CHO cells, S1P2 CRE-bla CHO cells, S1P3 NFAT-bla CHO cells, Tango™ S1P4 (EDG6)-bla U-2 OS cells, and Tango™ S1P5 ([…])-bla U-2 OS cells. The S1P1 antagonist assay was carried out according to the manufacturer’s instructions using a Tango™ S1P1 (EDG1)-bla U-2 OS Cell-Based Assay (Invitrogen, NY, USA).

S1P1 = S1P1 (Homo sapiens, UniProt P21453); assay: S1P1 antagonist assay, Tango S1P1 (EDG1)-bla U-2 OS cells; assay type: cell-based; design: Tango fusion partner (protease site + GAL4-VP16 transcription factor); host or cells: Tango S1P1 (EDG1)-bla U-2 OS cells; conditions: S1P1 TANGO U-2 OS cell line
S1P1, sequence (P21453 whole entry, the tested form may be a part): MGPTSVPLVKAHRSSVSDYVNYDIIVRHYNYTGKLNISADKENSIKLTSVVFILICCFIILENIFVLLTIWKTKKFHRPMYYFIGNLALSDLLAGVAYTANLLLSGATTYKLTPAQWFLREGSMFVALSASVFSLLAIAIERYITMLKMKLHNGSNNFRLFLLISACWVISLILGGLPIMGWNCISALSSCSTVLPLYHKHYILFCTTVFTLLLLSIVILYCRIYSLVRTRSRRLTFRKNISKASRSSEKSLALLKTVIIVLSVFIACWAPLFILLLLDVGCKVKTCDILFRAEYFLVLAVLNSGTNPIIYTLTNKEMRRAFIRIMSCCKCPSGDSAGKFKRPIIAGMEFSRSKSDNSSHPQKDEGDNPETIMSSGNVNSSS
Protocol: as §1, §2

| SMILES | effects on the S1P1 population in murine blood, spleen, and lymph nodes (C57BL/6 mice; 1.8 mg/l, 2 days) | inhibition of mice T-cell proliferation (murine splenocytes) | increase of S1P1-positive T cells in the blood, of normal expression levels (C57BL/6 mice; 1.8 mg/l) | increase of S1P1 population, spleen T cells (C57BL/6 mice; 1.8 mg/l) | decrease of S1P1 population in the lymph nodes (C57BL/6 mice; 2.7 mg/l) | increase of S1P1-positive T cells in the blood, of normal expression levels (C57BL/6 mice; 2.7 mg/l) | increase of S1P1 population, spleen T cells (C57BL/6 mice; 2.7 mg/l) | decrease of S1P1 population in the lymph nodes (C57BL/6 mice; 3.6 mg/l) | increase of S1P1-positive T cells in the blood, of normal expression levels (C57BL/6 mice; 3.6 mg/l) | EC50 (S1P3) [µM] | IC50 (S1P1) [µM] |
| --- | --- | --- | --- | --- | --- | --- | --- | --- | --- | --- | --- |
| CCCCCCCCc1ccc(CCC(N)(CO)CO)cc1 [FTY720, Fingolimod, reference compound] | did not demonstrate any effects |  |  |  |  |  |  |  |  |  |  |
| CCCCCCCCCCCCCCCCNC(CO)(CO)CO [AD2900] |  | 73% ± 3% | 20% ± 4% | 12% ± 5% | 12% ± 3% | 16% ± 5% | 31% ± 5% | 18% ± 11% | 18% ± 4% | > 50 | 3.8 |

— article PMC5581131, “The novel sphingosine-1-phosphate receptors antagonist AD2900 affects lymphocyte activation and inhibits T-cell entry into the lymph nodes” (Oncotarget, 2017)
